Results reported in patent US9107900B2, “Use of dronedarone for the preparation of a medicament for use in the prevention of cardiovascular hospitalization or of morality” (SANOFI, priority 2008, dated 2015).
Counter-ions that a name gives are not always drawn.

Tested on: patients having a history of atrial fibrillation or atrial flutter
Experiment: prospective, multinational, multicentre, double-blind clinical study versus placebo: cardiovascular hospitalizations and mortality
Format: in vivo, human
Experimental: The patients had to have a history of atrial fibrillation or flutter and/or could be in normal sinus rhythm or in atrial fibrillation or flutter at inclusion.
The patient recruitment was carried out by taking into account the following inclusion criteria:
• 1) One of the following risk factors had to be present: • age equal to or greater than 70 years, • hypertension (taking antihypertensives of at least two different classes), • diabetes, • history of cerebral stroke (transient ischemic event or completed cerebral stroke) or of systemic embolism, • left atrial diameter greater than or equal to 50 mm measured by echocardiography, • left ventricular ejection fraction less than 40%, measured by two-dimensional echography; or • age equal to or above 70, or even above 75, possibly combined with at least one of the risk factors below: • hypertension (taking antihypertensives of at least two different classes), • diabetes, • history of cerebral stroke (transient ischemic event or completed cerebral stroke) or of systemic embolism, • left atrial diameter greater than or equal to 50 mm measured by echocardiography, • left ventricular ejection fraction less than 40%, measured by two-dimensional echography; • 2) availability of an electrocardiogram carried out during the past 6 months in order to document the presence or the history of atrial fibrillation or flutter; • 3) availability of an electrocardiogram carried out during the past 6 months in order to document the presence or absence of normal sinus rhythm. […] Criteria Related to a Cardiac Condition: • Patients in permanent atrial fibrillation • Patients in unstable hemodynamic condition such as acute pulmonary edema within 12 hours prior to start of study medication; cardiogenic shock; treatment with IV pressor agents; patients on respirator; congestive heart failure of stage NYHA IV within the last 4 weeks; uncorrected, hemodynamically significant primary obstructive valvular disease; hemodynamically significant obstructive cardomyopathy; a cardiac operation or revascularization procedure within 4 weeks preceding randomization • Planned major non-cardiac or cardiac surgery or procedures including surgery for valvular heart disease, coronary artery bypass graft (CABG), percutaneous coronary intervention (PCI), or on urgent cardiac transplantation list • Acute myocarditis or constrictive pericarditis • Bradycardia<50 bpm and/or PR-interval>0.28 sec on the last 12-lead ECG. • Significant sinus node disease (documented pause of 3 seconds or more) or 2nd or 3rd degree atrioventricular block (AV-block) unless treated with a pacemaker. Criteria Related to Concomitant Medications:
Need of a concomitant medication that is prohibited in this trial, including the requirement for Vaughan Williams Class I and III anti-arrhythmic drugs, that would preclude the use of study drug during the planned study period, i.e. patients have to stop others antiarrhythmics such as Vaughan Williams Class I and III anti-arrhythmic drugs, for example amiodarone, flecamide, propafenone, quinidine, disopyramide, dofetilide, solatol.
• Plasma potassium<3.5 mmol/l (as anti-arrhythmic drugs can be arrhythmogenic in patients with hypokalemia, this must be corrected prior to randomization. • A calculated GFR at baseline<10 ml/min using the Cockroft Gault formula (GFR [ml/min]=(140−AGE [years]*WEIGHT [kilograms]*CONSTANT/CREATININE [μmol/L], where CONSTANT is […]).
Furthermore, the concomitant use of grapefruit juice and all potent inhibitors of CYP3A4 such as ketoconazole were prohibited.
Treatment was initiated using tablets containing either the placebo or an amount of dronedarone hydrochloride corresponding to 400 mg of dronedarone at a rate of twice a day with the morning and evening meal and more specifically at a rate of one tablet in the morning during or shortly after breakfast and one tablet in the evening during or shortly after dinner. […]

[1] = NYHA class III and LVEF below 0.35, stable, 400 mg BID, N = 24
[2] = NYHA class III congestive heart failure, stable hemodynamic condition, vs placebo
[3] = NYHA class III congestive heart failure, stable, vs placebo
[4] = all patients, treated group 2301 of 4628
[5] = all patients, treated group 2301 of 4628, 400 mg twice a day
[6] = congestive heart failure, LVEF below 0.35, stable, vs placebo
[7] = patients with a structural heart disease
[8] = patients with a structural heart disease, vs placebo
[9] = patients with coronary heart disease (668 treated patients)
[10] = patients with coronary heart disease, vs placebo
[11] = patients with permanent atrial fibrillation/flutter, vs placebo

Question: What does the source list for CCCCc1oc2ccc(NS(C)(=O)=O)cc2c1C(=O)c1ccc(OCCCN(CCCC)CCCC)cc1 [dronedarone hydrochloride, 2-n-Butyl-3-[4-(3-di-n-butylaminopropoxy)benzoyl]-5-methylsulphonamidobenzofuran]?
Answer: HR (95% CI): cardiovascular hospitalization and death (Left atrium diameter >=50 mm (N 955), vs placebo): 0.77 (0.63, 0.94); decrease of cardiovascular hospitalization and death (Left atrium diameter >=50 mm, vs placebo): 23%; Endpoint's composition: Cardiovascular death [1]: 2; Endpoint's composition: Cardiovascular hospitalization [1]: 10; Endpoint's composition: Death from any cause [1]: 3; Endpoint's composition: Non cardiovascular death [1]: 1; number of events: death (NYHA class III congestive heart failure, stable (91 treated patients)): 12 events; number of events: cardiovascular hospitalization and death (NYHA class III congestive heart failure, stable hemodynamic condition (91 treated patients)): 40 events; decrease of cardiovascular hospitalization or death [2]: 44%; relative risk: cardiovascular hospitalization or death [2]: 0.56; decrease of death [3]: 34%; relative risk: death [3]: 0.66; HR (95% CI): cardiovascular hospitalization and death (Prior cerebrovascular accident or systemic embolism (N 616), vs placebo): 0.80 (0.62, 1.02); decrease of cardiovascular hospitalization and death (Prior cerebrovascular accident or systemic embolism, vs placebo): 20%; number of arrhythmic deaths (deaths from cardiac arrhythmia) [4]: 26 arrhythmic deaths; number of cardiovascular deaths [4]: 65 cardiovascular deaths; number of deaths: mortality from any cause [4]: 116 deaths; number of events: cardiovascular hospitalizations [4]: 675 events; number of events: cardiovascular hospitalizations and sudden death [4]: 684 events; number of events: cardiovascular hospitalizations for atrial fibrillation or supraventricular arrhythmia [4]: 296 events; number of events: cardiovascular hospitalizations for transient ischemic event or stroke [4]: 43 events; number of events: hospitalizations associated with class IV congestive heart failure [4]: 42 events; number of events: hospitalizations associated with congestive heart failure [4]: 112 events; number of sudden deaths [4]: 14 sudden deaths; number of events: cardiovascular hospitalizations and cardiovascular mortality [5]: 701 events; number of events: cardiovascular hospitalizations and mortality (principal judgement criterion) [5]: 734 events; number of events: death (congestive heart failure, LVEF below 0.35, stable (92 treated patients)): 10 events; decrease of cardiovascular hospitalization or death [6]: 32%; decrease of death [6]: 45%; relative risk: cardiovascular hospitalization or death [6]: 0.68; relative risk: death [6]: 0.55; number of events: cardiovascular hospitalization and death (congestive heart failure, left ventricular ejection fraction below 0.35, stable hemodynamic condition (92 treated patients)): 39 events; reduction in the risk of sudden death (patients not taking diuretics, vs placebo): 34%; number of events: cardiovascular hospitalizations and mortality (patients who developed permanent atrial fibrillation/flutter): 29 events; number of events: cardiovascular death [7]: 48 events; number of events: cardiovascular hospitalization [7]: 452 events; number of events: cardiovascular hospitalization or death [7]: 486 events; number of events: death [7]: 77 events; decrease of cardiovascular deaths [8]: 33%; decrease of cardiovascular hospitalization [8]: 24%; decrease of cardiovascular hospitalization or death [8]: 24%; decrease of death [8]: 24%; relative risk: cardiovascular death [8]: 0.67; relative risk: cardiovascular hospitalization [8]: 0.76; relative risk: cardiovascular hospitalization or death [8]: 0.76; relative risk: death [8]: 0.76; number of events: cardiovascular death [9]: 26 events; number of events: cardiovascular hospitalization [9]: 233 events; number of events: cardiovascular hospitalization or death [9]: 252 events; number of events: death [9]: 39 events; decrease of cardiovascular death [10]: 40%; decrease of cardiovascular hospitalization [10]: 26%; decrease of cardiovascular hospitalization or death [10]: 27%; decrease of death [10]: 36%; relative risk: cardiovascular death [10]: 0.602; relative risk: cardiovascular hospitalization [10]: 0.740; relative risk: cardiovascular hospitalization or death [10]: 0.733; relative risk: death [10]: 0.643; reduction in cardiovascular hospitalizations and mortality [11]: 33%; relative risk: cardiovascular hospitalizations and mortality [11]: 0.67; patients who developed permanent atrial fibrillation/flutter (treated group 2301 of 4628, p<0.001 vs placebo (294)): 178 patients; decrease of cardiovascular hospitalization associated with class IV congestive heart failure (vs placebo, all patients): 22%; decrease of cardiovascular hospitalization associated with congestive heart failure (vs placebo, all patients): 14.5%; reduction in cardiovascular hospitalizations (vs placebo, all patients): 25.5%; reduction in cardiovascular hospitalizations and cardiovascular deaths (vs placebo, all patients): 25.5%; reduction in cardiovascular hospitalizations and sudden deaths (vs placebo, all patients): 25.5%; reduction in cardiovascular hospitalizations for atrial fibrillation (vs placebo, all patients): 38.4%; reduction in cardiovascular hospitalizations for transient ischemic event or stroke (vs placebo, all patients): 34%; reduction in cardiovascular mortality (vs placebo, all patients): 30.2%; reduction in sudden death (vs placebo, all patients): 59.5%; reduction in the risk of a first cardiovascular hospitalization not due to a supraventricular arrhythmia (vs placebo, all patients): 14.5%; reduction of arrhythmic death (vs placebo, all patients): 45%; reduction of death (any cause) (vs placebo, all patients): 15.6%; relative risk: arrhythmic death (vs placebo, all patients): 0.55; relative risk: cardiovascular hospitalizations (vs placebo, all patients): 0.745; relative risk: cardiovascular hospitalizations and cardiovascular deaths (vs placebo, all patients): 0.745; relative risk: cardiovascular hospitalizations and sudden deaths (vs placebo, all patients): 0.743; relative risk: cardiovascular hospitalizations for atrial fibrillation or supraventricular arrhythmia (vs placebo, all patients): 0.616; relative risk: cardiovascular hospitalizations for transient ischemic event or stroke (vs placebo, all patients): 0.66; relative risk: cardiovascular mortality (vs placebo, all patients): 0.698; relative risk: hospitalizations associated with class IV congestive heart failure (vs placebo, all patients): 0.78; relative risk: hospitalizations associated with congestive heart failure (vs placebo, all patients): 0.855; relative risk: mortality from any cause (vs placebo, all patients): 0.844; relative risk: sudden death (vs placebo, all patients): 0.405; relative risk: cardiovascular hospitalizations and deaths (vs placebo, all patients, 400 mg twice a day): 0.758; reduction in cardiovascular hospitalizations and deaths (vs placebo, all patients, x=1-relative risk): 24.2%
